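Briefly, cells in 96-well plates were exposed to five compound concentrations for 48 h, and endpoints were estimated by linear interpolation. The concentration for 50% growth inhibition is given as GI50.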 Active and inactive are the calls of the source. No stated cut-off is given here; in the data, active = GI50 up to about 1.1 µM and inactive = higher.
Tests used:
Test in all cases: inhibition of tumour cell growth, NCI panel, 48 h
OVCAR-3 = system: OVCAR-3
SK-MEL-5 = system: SK-MEL-5
SW-620 = system: SW-620
SR = system: SR
ACHN = system: ACHN
NCI-H23 = system: NCI-H23
Malme-3M = system: Malme-3M
OVCAR-5 = system: OVCAR-5
SNB-75 = system: SNB-75
HL-60 = system: HL-60
HOP-92 = system: HOP-92
RPMI-8226 = system: RPMI-8226
UACC-257 = system: UACC-257
SF-295 = system: SF-295
M14 = system: M14
NCI-H522 = system: NCI-H522
CCRF-CEM = system: CCRF-CEM
MDA-MB-231 = system: MDA-MB-231
NCI/ADR-RES = system: NCI/ADR-RES

Structure (SMILES) | GI50 (OVCAR-3) | GI50 (SK-MEL-5) | GI50 (SW-620) | GI50 (SR) | GI50 (ACHN) | GI50 (NCI-H23) | GI50 (Malme-3M) | GI50 (OVCAR-5) | GI50 (SNB-75) | GI50 (HL-60) | GI50 (HOP-92) | GI50 (RPMI-8226) | GI50 (UACC-257) | GI50 (SF-295) | GI50 (M14) | GI50 (NCI-H522) | GI50 (CCRF-CEM) | GI50 (MDA-MB-231) | GI50 (NCI/ADR-RES)
NC(=O)C(=O)N/N=C(\CC1(O)C(=O)Nc2ccccc21)c1ccc2ccccc2c1 (centres undefined) | 25.8 µM (inactive) | 32.3 µM (inactive) | 33.5 µM (inactive) | 18.2 µM (inactive) | 32.9 µM (inactive) | 29.6 µM (inactive) | 61.7 µM (inactive) | > 100 µM (inactive) | 40.6 µM (inactive) | 16.6 µM (inactive) | 39 µM (inactive) | 34.4 µM (inactive) | 28.5 µM (inactive) | 37.9 µM (inactive) | 32.7 µM (inactive) | 18.7 µM (inactive) | 20.3 µM (inactive) | – | –
O=C(Nc1nc2ncn(CCO)c2c(=O)[nH]1)c1ccccc1 | > 100 µM (inactive) | > 100 µM (inactive) | > 100 µM (inactive) | > 100 µM (inactive) | > 100 µM (inactive) | – | > 100 µM (inactive) | > 100 µM (inactive) | > 100 µM (inactive) | > 100 µM (inactive) | > 100 µM (inactive) | > 100 µM (inactive) | > 100 µM (inactive) | > 100 µM (inactive) | > 100 µM (inactive) | > 100 µM (inactive) | > 100 µM (inactive) | – | –
CC(=O)OC12C=CC(=O)N1c1ccccc1C(=O)O2 (centres undefined) | > 100 µM (inactive) | > 100 µM (inactive) | > 100 µM (inactive) | > 100 µM (inactive) | > 100 µM (inactive) | > 100 µM (inactive) | 0.962 µM (active) | > 100 µM (inactive) | > 100 µM (inactive) | > 100 µM (inactive) | > 100 µM (inactive) | > 100 µM (inactive) | > 100 µM (inactive) | > 100 µM (inactive) | > 100 µM (inactive) | > 100 µM (inactive) | > 100 µM (inactive) | – | –
CCc1c(-c2coc(CC/C(C)=C/c3ccccc3)n2)oc(OC)c(C)c1=O | 45.2 µM (inactive) | 4.12 µM (inactive) | 9.25 µM (inactive) | < 0.01 µM (active) | 22.5 µM (inactive) | – | > 59.8 µM (inactive) | > 100 µM (inactive) | 49.4 µM (inactive) | 5.13 µM (inactive) | 34.6 µM (inactive) | 11.7 µM (inactive) | > 100 µM (inactive) | 1.77 µM (inactive) | 34.8 µM (inactive) | 0.209 µM (active) | 14.9 µM (inactive) | – | –
C=CC1(C)CCC(C(C)C(=O)C(C=C(C)C)OC(C)=O)C12C(=O)Oc1ccccc1C2=O (centres undefined) | 38.9 µM (inactive) | – | 63.8 µM (inactive) | 33.6 µM (inactive) | 51.5 µM (inactive) | 46.7 µM (inactive) | 48.5 µM (inactive) | – | 52.5 µM (inactive) | 19.7 µM (inactive) | 40.2 µM (inactive) | 23.7 µM (inactive) | 35 µM (inactive) | 47.9 µM (inactive) | 54.2 µM (inactive) | 31.6 µM (inactive) | 27 µM (inactive) | – | –
COC(=O)C1[C@@H](C(=O)OC)C12C=Cc1ccccc1C=C2 (some centres undefined) | > 100 µM (inactive) | > 100 µM (inactive) | > 100 µM (inactive) | > 100 µM (inactive) | > 100 µM (inactive) | > 100 µM (inactive) | > 100 µM (inactive) | > 100 µM (inactive) | – | > 100 µM (inactive) | > 100 µM (inactive) | > 100 µM (inactive) | > 100 µM (inactive) | > 100 µM (inactive) | > 100 µM (inactive) | > 100 µM (inactive) | > 100 µM (inactive) | – | –
COC(=O)C1C(=O)O[C@@H](c2ccc(OC)cc2OC)C1C(=O)OC (some centres undefined) | > 100 µM (inactive) | > 100 µM (inactive) | > 100 µM (inactive) | > 100 µM (inactive) | > 100 µM (inactive) | > 100 µM (inactive) | > 100 µM (inactive) | > 100 µM (inactive) | > 100 µM (inactive) | > 100 µM (inactive) | > 100 µM (inactive) | > 100 µM (inactive) | > 100 µM (inactive) | > 100 µM (inactive) | > 100 µM (inactive) | – | > 100 µM (inactive) | – | –
Nc1ccc(-c2nn3c(COc4ccc(Cl)cc4)nnc3s2)cc1 | > 100 µM (inactive) | > 100 µM (inactive) | > 100 µM (inactive) | – | > 100 µM (inactive) | > 100 µM (inactive) | > 100 µM (inactive) | > 100 µM (inactive) | > 100 µM (inactive) | > 100 µM (inactive) | – | 77.6 µM (inactive) | > 100 µM (inactive) | 56.9 µM (inactive) | > 100 µM (inactive) | 65 µM (inactive) | – | 87.3 µM (inactive) | > 100 µM (inactive)

— ChEMBL document CHEMBL1201862, “PubChem BioAssay data set” (2004)
